# No end group written: not given here.
# Columns and labels:
# pancreas = settings: cited from earlier work
# [1] = tested on: HM dog model (pacing-induced heart failure); test: Paced dog model of hibernating myocardium: 48 h i.v. infusion, plasma catecholamines and hemodynamics; type: in vivo, Beagle dogs; settings: for LV contractility (dP/dt) restored to: Dog A (FIG. 1); for LV ejection fraction (LVEF) improved to: Dog A (FIG. 2); for LV wall thickening: Dog A (FIG. 3); for Cardiac output (CO): Dog A (FIG. 4); for CBF (coronary blood flow) / LVEDP (LV end-diastolic pressure) / LVP (left ventricular pressure) / MVO2 (myocardial oxygen consumption) / dP/dt (left ventricular contractility) / NE (plasma norepinepherine): GLP-1 group
# Text: The “paced dog” model, used in the Example below, provides a system to study NM, because the exertion of the heart exceeds the heart's ability to respond, which creates an energy-limited situation. Other suitable animal models are available to study chronically dysfunctional viable myocardium, in dogs and pigs, for example, which allow laboratory study of therapeutic regimens. […] Canty a al., Am. J. Physiol, 277; H417-H422 (1999). Similar animal models in diabetic dogs, mice and rats are available for the study of DCM. Bell (1995); Fein (1990).
# Beagle dogs were fitted with telemetry devices that permit tong-term ambulatory data collection in conscious animals. These devices measured LV pressure, myocardial oxygen consumption (MVO2, an expression of myocardial efficiency), coronary flow (CBF), and cardiac output (CO). The dogs were “paced,” such that heart rate was forced up to about 240 beats per minute, for 3-4 weeks, which induces moderate HM in a predictable manner. This HM dog model is an accepted model for assessing the effectiveness of treatments for HM. Kiuchi et al., “Myocardial beta-adrenergic receptor function during the development of pacing-induced heart failure.” J. Clin. Invest. 91: 907-914 (1993).
# During the treatment period, “pacing” was discontinued. Plasma catecholamines were assessed before and after infusion, along with LV pressures, coronary and systemic hemodynamics, and MVO2.
# [2] = 48 h i.v. infusion 1.5 pmol/kg/min, after vs before
# [3] = AFTER 48 h i.v. infusion 1.5 pmol/kg/min
substance,measurement,setting,value
Glu Gly Thr Phe Thr Ser Asp Val Ser Ser Tyr Leu Glu Gly Gln Ala Ala Lys Glu Phe Ile Ala Trp Lau Val Lys Gly Arg Gly (EGTFTSDVSSYLEGQAAKEFIAWLVKGRG; not fully specified; printed as Glu Gly Thr Phe Thr Ser Asp Val Ser Ser Tyr Leu Glu Gly Gln Ala Ala Lys Glu Phe Ile Ala Trp Lau Val Lys Gly Arg Gly) [SEQ ID NO:5],stimulation of production or release of insulin from the pancreas,pancreas,do not stimulate production or release of insulin
Glu Gly Thr Phe Thr Ser Asp Val Ser Ser Tyr Leu Glu Gly Gln Ala Ala Lys Glu Phe Ile Ala Trp Leu Val Lys Gly Arg (NH2) (EGTFTSDVSSYLEGQAAKEFIAWLVKGR-NH2) [SEQ ID NO:6],stimulation of production or release of insulin from the pancreas,pancreas,do not stimulate production or release of insulin
rGLP-1 (7-36) amide,"Effect of treatment on LV end-diastolic pressure (LVEDP), in words",[1]; [2],significantly decreasing
same,"Effect of treatment on cardiac output (CO), in words",[1]; [2],significantly (*p<0.05) increased
same,"Effect of treatment on coronary blood flow (CBF), in words",[1]; [2],significantly (*p<0.05) increased
same,"Effect of treatment on left ventricular contractility (LV dP/dt), in words",[1]; [2],significantly (*p<0.05) increased
same,"Effect of treatment on left ventricular pressure (LVP), in words",[1]; [2],significantly (*p<0.05) increased
same,"Effect of treatment on myocardial oxygen consumption (MVO2), in words",[1]; [2],significantly (*p<0.05) increased
same,LV contractility (dP/dt) restored to,"[1]; 24 hours of treatment, pacing had reduced contractility by 60%",80 % of baseline
same,LV contractility (dP/dt) restored to,[1]; 48 hours of treatment,90 % of baseline
same,LV ejection fraction (LVEF) improved to,"[1]; 24 hours of treatment, pacing had reduced LVEF by 40%",88 % of the baseline value
same,LV ejection fraction (LVEF) improved to,[1]; 48 hours of treatment,95 % of the baseline value
same,LV wall thickening,"[1]; 24 hours of treatment, pacing had reduced wall thickening by 20%",recovered
same,LV wall thickening,[1]; 48 hours of treatment,147 % of the baseline value
same,Cardiac output (CO),"[1]; 24 hours of treatment, pacing had reduced CO by 30%",restored to baseline levels
same,Cardiac output (CO),[1]; 48 hours of treatment,116 % of baseline
same,CBF (coronary blood flow),[1]; [3],37 ± 3 mL/min
same,LVEDP (LV end-diastolic pressure),[1]; [3],15 ± 1 mm Hg
same,LVP (left ventricular pressure),[1]; [3],108 ± 2 mm Hg
same,MVO2 (myocardial oxygen consumption),[1]; [3],297 ± 16 ml O2/min
same,dP/dt (left ventricular contractility),[1]; [3],2212 ± 86 mm Hg/s
same,NE (plasma norepinepherine),"[1]; AFTER 48 h i.v. infusion 1.5 pmol/kg/min, *p<0.05",1.62 ± 0.11* nmol/ml
same,NE (plasma norepinepherine),"[1]; AFTER 48 h i.v. infusion 1.5 pmol/kg/min, *p<0.05, listed as CLP-1",1.62 ± 0.11 nmol/mL
same,CBF (coronary blood flow),[1]; BEFORE infusion,27 ± 1 mL/min
same,LVEDP (LV end-diastolic pressure),[1]; BEFORE infusion,25 ± 1 mm Hg
same,LVP (left ventricular pressure),[1]; BEFORE infusion,98 ± 2 mm Hg
same,MVO2 (myocardial oxygen consumption),[1]; BEFORE infusion,246 ± 18 ml O2/min
same,dP/dt (left ventricular contractility),[1]; BEFORE infusion,1127 ± 86 mm Hg/s
same,NE (plasma norepinepherine),"[1]; BEFORE infusion (after 3-4 weeks pacing), five dogs",2.30 ± 0.15 nmol/mL
same,NE (plasma norepinepherine),"[1]; BEFORE infusion (after 3-4 weeks pacing), five dogs, listed as CLP-1",2.30 ± 0.15 nmol/mL
